Data as given in PubChem BioAssay AID2060491 (Molecular Pharmacology Branch, DTP, NCI, 2025).

Tested on: 857933-349-R-J2-PDC complex spheroids, viability
Experiment: Anticancer human tumor 857933-349-R-J2-PDC patient-derived colon adenocarcinoma cell line growth inhibition [GQUAD]
Conditions: for IC50: curve of first compound; for viability, T/C: stronger effect = lower value
Method in brief: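 Viability of tumor cells grown as complex spheroids with endothelial and stromal cells, exposed to drug combinations. Top concentration at or near clinical Cmax (else 10 microM), diluted in half-log increments.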
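Note: spheroids exposed to compounds for one week before readout.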
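Throughout, for viability, T/C: percent viability relative to vehicle DMSO wells taken as 100%.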

## C=CCn1c(=O)c2cnc(Nc3ccc(N4CCN(C)CC4)cc3)nc2n1-c1cccc(C(C)(C)O)n1 + Cc1cnc(CNC(=O)c2c(=O)c3ccc(N4CCCN(C)CC4)nc3n3c2sc2ccccc23)cn1
Second compound 0.0316 µM
  IC50: 696 nM
Second compound 0.1 µM
  IC50: 263 nM
Second compound 0.316 µM
  IC50: < 31.6 nM
Second compound 1 µM
  IC50: < 31.6 nM
Second compound 3.16 µM
  IC50: < 31.6 nM
Second compound 10 µM
  IC50: < 31.6 nM
Second compound 0.0316 µM, first compound 0.0316 µM
  viability, T/C: 92.5%
Second compound 0.0316 µM, first compound 0.1 µM
  viability, T/C: 77.4%
Second compound 0.0316 µM, first compound 0.316 µM
  viability, T/C: 76.8%
Second compound 0.0316 µM, first compound 1 µM
  viability, T/C: 38.5%
Second compound 0.0316 µM, first compound 3.16 µM
  viability, T/C: 7.81%
Second compound 0.0316 µM, first compound 10 µM
  viability, T/C: 10.4%
Second compound 0.1 µM, first compound 0.0316 µM
  viability, T/C: 53.7%
Second compound 0.1 µM, first compound 0.1 µM
  viability, T/C: 64.7%
Second compound 0.1 µM, first compound 0.316 µM
  viability, T/C: 42.7%
Second compound 0.1 µM, first compound 1 µM
  viability, T/C: 32%
Second compound 0.1 µM, first compound 3.16 µM
  viability, T/C: 4.33%
Second compound 0.1 µM, first compound 10 µM
  viability, T/C: 7.51%
Second compound 0.316 µM, first compound 0.0316 µM
  viability, T/C: 19.5%
Second compound 0.316 µM, first compound 0.1 µM
  viability, T/C: 21.2%
Second compound 0.316 µM, first compound 0.316 µM
  viability, T/C: 11.9%
Second compound 0.316 µM, first compound 1 µM
  viability, T/C: 5.37%
Second compound 0.316 µM, first compound 3.16 µM
  viability, T/C: 2.1%
Second compound 0.316 µM, first compound 10 µM
  viability, T/C: 3.41%
Second compound 1 µM, first compound 0.0316 µM
  viability, T/C: 3.56%
Second compound 1 µM, first compound 0.1 µM
  viability, T/C: 3.34%
Second compound 1 µM, first compound 0.316 µM
  viability, T/C: 2.67%
Second compound 1 µM, first compound 1 µM
  viability, T/C: 2.03%
Second compound 1 µM, first compound 3.16 µM
  viability, T/C: 1.76%
Second compound 1 µM, first compound 10 µM
  viability, T/C: 2.24%
Second compound 3.16 µM, first compound 0.0316 µM
  viability, T/C: 2.07%
Second compound 3.16 µM, first compound 0.1 µM
  viability, T/C: 2.26%
Second compound 3.16 µM, first compound 0.316 µM
  viability, T/C: 2.31%
Second compound 3.16 µM, first compound 1 µM
  viability, T/C: 1.3%
Second compound 3.16 µM, first compound 3.16 µM
  viability, T/C: 0.68%
Second compound 3.16 µM, first compound 10 µM
  viability, T/C: 1.5%
Second compound 10 µM, first compound 0.0316 µM
  viability, T/C: 0.17%
Second compound 10 µM, first compound 0.1 µM
  viability, T/C: 0.27%
Second compound 10 µM, first compound 0.316 µM
  viability, T/C: 0.23%
Second compound 10 µM, first compound 1 µM
  viability, T/C: 0.2%
Second compound 10 µM, first compound 3.16 µM
  viability, T/C: 0.19%
Second compound 10 µM, first compound 10 µM
  viability, T/C: 0.22%
